PubChem BioAssay (NCI)
Several values for one entry are separate records, joined by “and”; a condition that tells them apart may be missing. Equal values may be shown once.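 Assay format: 96-well plates, 48-hour exposure. GI50 marks 50% less growth. TGI marks complete inhibition of growth.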

Legend:
Assay in all cases: growth of human tumour cells (NCI), 48 h
[1] = tested on: HCT-116 colon
[2] = tested on: HCC-2998 colon
[3] = tested on: SNB-19 CNS
[4] = tested on: OVCAR-4 ovarian
[5] = tested on: HOP-18 NSCLC
[6] = tested on: UACC-62 melanoma
[7] = tested on: NCI-H23 lung
[8] = tested on: HOP-62 NSCLC
[9] = tested on: ACHN renal
[10] = tested on: IGROV1 ovarian
[11] = tested on: NCI-H522 lung
[12] = tested on: OVCAR-3 ovarian
[13] = tested on: MOLT-4 leukemia
[14] = tested on: UACC-257 melanoma
[15] = tested on: LOX IMVI melanoma
[16] = tested on: 786-0 renal
[17] = tested on: NCI-H460 lung
[18] = tested on: CAKI-1 renal
[19] = tested on: U251 CNS
[20] = tested on: SNB-75 CNS
[21] = tested on: HOP-92 NSCLC
[22] = tested on: KM12 colon
[23] = tested on: TK-10 renal
[24] = tested on: MALME-3M melanoma
[25] = tested on: SF-268 CNS
[26] = tested on: UO-31 renal
[27] = tested on: XF 498 CNS
[28] = tested on: HT29 colon
[29] = tested on: LXFL 529 NSCLC
[30] = tested on: NCI-H226 lung
[31] = tested on: A498 renal
[32] = tested on: OVCAR-5 ovarian
[33] = tested on: SK-OV-3 ovarian
[34] = tested on: SK-MEL-2 melanoma
[35] = tested on: M19-MEL melanoma
[36] = tested on: SK-MEL-28 melanoma
[37] = tested on: M14 melanoma
[38] = tested on: SK-MEL-5 melanoma
[39] = tested on: SW-620 colon
[40] = tested on: SNB-78 CNS
[41] = tested on: SN12C renal
[42] = tested on: DMS 273 small cell lung
[43] = tested on: A549 NSCLC
[44] = tested on: CCRF-CEM leukemia
[45] = tested on: EKVX NSCLC
[46] = tested on: OVCAR-8 ovarian
[47] = tested on: COLO 205 colon
[48] = tested on: SF-295 CNS
[49] = tested on: RPMI-8226 leukemia
[50] = tested on: SF-539 CNS
[51] = tested on: SR leukemia
[52] = tested on: DLD-1 colon
[53] = tested on: K-562 leukemia
[54] = tested on: DMS 114 small cell lung
[55] = tested on: KM20L2 colon
[56] = tested on: HL-60(TB) leukemia
[57] = tested on: RXF 393 renal
[58] = tested on: HCT-15 colon
[59] = tested on: RXF-631 renal

## Cn1cnc([N+](=O)[O-])c1SC1=NCCS1
[1]
  TGI: > 100 µM
[2]
  TGI: > 100 µM
[3]
  TGI: > 100 µM
[4]
  TGI: > 100 µM
[5]
  TGI: > 100 µM
[6]
  TGI: > 100 µM
[7]
  TGI: > 100 µM
[8]
  TGI: > 100 µM
[9]
  TGI: > 100 µM
[10]
  TGI: > 100 µM
[11]
  TGI: 41.7 µM
[12]
  TGI: > 100 µM
[13]
  TGI: > 100 µM
[14]
  TGI: > 100 µM
[15]
  TGI: 39 µM
[16]
  TGI: > 100 µM
[17]
  TGI: > 100 µM
[18]
  TGI: > 100 µM
[19]
  TGI: > 100 µM
[20]
  TGI: > 100 µM
[21]
  TGI: > 100 µM
[22]
  TGI: > 100 µM
[23]
  TGI: > 100 µM
[24]
  TGI: 70.2 µM
[25]
  TGI: > 100 µM
[26]
  TGI: > 100 µM
[27]
  TGI: > 100 µM
[28]
  TGI: > 100 µM
[29]
  TGI: > 100 µM
[30]
  TGI: > 100 µM
[31]
  TGI: > 100 µM
[32]
  TGI: > 100 µM
[33]
  TGI: > 100 µM
[34]
  TGI: > 100 µM
[35]
  TGI: > 100 µM
[36]
  TGI: > 100 µM
[37]
  TGI: > 100 µM
[38]
  TGI: > 100 µM
[39]
  TGI: > 100 µM
[40]
  TGI: > 100 µM
[41]
  TGI: > 100 µM
[42]
  TGI: > 100 µM
[43]
  TGI: > 100 µM
[44]
  TGI: > 100 µM
[45]
  TGI: > 100 µM
[46]
  TGI: > 100 µM
[47]
  TGI: > 100 µM
[48]
  TGI: > 100 µM
[49]
  TGI: > 100 µM
[50]
  TGI: > 100 µM
[51]
  TGI: > 100 µM
[52]
  TGI: > 100 µM
[53]
  TGI: > 100 µM

## CCCCCCCCCCCCCC(=O)OC(/C=C/C(C)C)C(O)C(O)C(OC)C(=O)NC1CCCCNC1=O (stereo unspecified)
[1]
  GI50: 1.22 µM
  TGI: 3.97 µM
[2]
  GI50: 5.64 µM
  TGI: 4.13 µM
[3]
  TGI: 9.08 µM
[4]
  GI50: 3.97 µM
  TGI: 6.76 µM
[5]
  TGI: 10.5 µM
[6]
  GI50: 4.28 µM
  TGI: 3.74 µM
[7]
  GI50: 8.82 µM
  TGI: 5 µM
[8]
  GI50: 3.88 µM
  TGI: 6.8 µM
[9]
  GI50: 4.1 µM
  TGI: 4.76 µM
[10]
  GI50: 0.65 µM
  TGI: 5.15 µM
[11]
  GI50: 5.27 µM
  TGI: 4.23 µM
[12]
  GI50: 6.19 µM
  TGI: 5.38 µM
[54]
  TGI: 3.85 µM
[13]
  GI50: 5.57 µM
  TGI: 10.5 µM
[14]
  GI50: 6.37 µM
  TGI: 6.5 µM
[15]
  GI50: 1.73 µM
  TGI: 4.38 µM
[16]
  GI50: 1.56 µM
  TGI: 3.93 µM
[17]
  GI50: 0.461 µM
  TGI: 3.85 µM
[18]
  TGI: 3.81 µM
[19]
  GI50: 2.47 µM
  TGI: 4.3 µM
[20]
  GI50: 4.63 µM
  TGI: 9.46 µM
[21]
  TGI: 3.76 µM
[22]
  GI50: 3.92 µM
  TGI: 4.59 µM
[23]
  GI50: 8.26 µM
  TGI: 11.6 µM
[24]
  TGI: 5.36 µM
[25]
  TGI: 3.63 µM
[26]
  TGI: 4.98 µM
[55]
  TGI: 4.89 µM
[27]
  TGI: 5.47 µM
[28]
  GI50: 4.03 µM
  TGI: 4.51 µM
[29]
  TGI: 4.88 µM
[30]
  TGI: 8.95 µM
[56]
  TGI: 10.4 µM
[31]
  TGI: 14.6 µM
[32]
  TGI: 9.63 µM
[33]
  TGI: 10.4 µM
[34]
  TGI: 6.03 µM
[36]
  TGI: 5.11 µM
[37]
  GI50: 2.61 µM
  TGI: 4.35 µM
[38]
  GI50: 6.53 µM
  TGI: 5.25 µM
[57]
  TGI: 3.38 µM
[39]
  GI50: 4.4 µM
  TGI: 4.46 µM
[40]
  TGI: 9.18 µM
[41]
  TGI: 4.39 µM
[42]
  TGI: 2.81 µM
[43]
  GI50: 1.12 µM
  TGI: 4.28 µM
[58]
  GI50: 4.25 µM
  TGI: 4.8 µM
[44]
  GI50: 5.7 µM
  TGI: 11.9 µM
[45]
  TGI: 11.5 µM
[46]
  GI50: 2.77 µM
  TGI: 5.08 µM
[47]
  TGI: 3.69 µM
[48]
  GI50: 2.92 µM
  TGI: 4.42 µM
[49]
  TGI: 15.9 µM
[50]
  GI50: 2.29 µM
  TGI: 5.22 µM
[51]
  GI50: 0.381 µM
  TGI: 2.04 µM and 9.05 µM
[52]
  TGI: 5.07 µM
[53]
  GI50: 2.68 µM
  TGI: 10.2 µM

## CCOc1ccc(N=Nc2ccc3oc(=O)c(/C(C)=N\NC(=O)CC(=O)Nc4ccc(Cl)cc4)cc3c2)cc1
[1]
  TGI: 31.5 µM
[2]
  TGI: 35.2 µM
[3]
  TGI: > 100 µM
[4]
  TGI: 37.9 µM
[6]
  TGI: 28.9 µM
[7]
  TGI: 41.9 µM
[8]
  TGI: 36.4 µM
[9]
  TGI: 97.6 µM
[10]
  TGI: 45.4 µM
[11]
  TGI: 50.1 µM
[12]
  TGI: 30.4 µM
[54]
  TGI: 42 µM
[13]
  TGI: 28.8 µM
[15]
  TGI: 26.5 µM
[18]
  TGI: > 100 µM
[19]
  TGI: 34 µM
[21]
  TGI: 54.9 µM
[22]
  TGI: 60.7 µM
[23]
  TGI: 35.5 µM
[24]
  TGI: 30.3 µM
[25]
  TGI: 41.5 µM
[26]
  TGI: 36.9 µM
[55]
  TGI: > 100 µM
[27]
  TGI: 4.31 µM
[29]
  TGI: 27 µM
[30]
  TGI: > 100 µM
[32]
  TGI: > 100 µM
[33]
  TGI: 41.8 µM
[34]
  TGI: 9.32 µM
[35]
  TGI: > 100 µM
[59]
  TGI: 45.5 µM
[36]
  TGI: > 100 µM
[38]
  TGI: 38.7 µM
[57]
  TGI: 29.6 µM
[39]
  TGI: 38.8 µM
[40]
  TGI: > 100 µM
[41]
  TGI: 81.1 µM
[42]
  TGI: 37.3 µM
[43]
  TGI: 43.3 µM
[58]
  TGI: 26.4 µM
[44]
  TGI: 11.4 µM
[45]
  TGI: 34.7 µM
[46]
  TGI: 34.4 µM
[47]
  TGI: > 100 µM
[48]
  TGI: 34.3 µM
[49]
  TGI: 64.7 µM
[50]
  TGI: 33.5 µM
[51]
  TGI: 25 µM
[52]
  TGI: 32 µM
[53]
  TGI: 70.6 µM
